The values below come from patent publication US20090123565A9, “Copper-dependent non-traditional pro-inflammatory cytokine export and methods, compositions and kits relating thereto” (Maine Medical Center Research Institute, priority 2001, published 2009).

The test system of data set [1] is balloon-injured rat carotid artery. As to the kind of experiment: Macrophage infiltration into injured arterial wall (CD11b/MAC1 immunostaining). In kind it is in vivo, Sprague-Dawley rats. How it is done: (§1) In order to address the mechanisms underlying the effect of copper chelation on neointima formation, TTM was administered for 2 weeks before the balloon injury and daily after that until the animals were euthanized at the 4th and 7th day after the procedure. Accordingly, TTM-free animals euthanized 4 and 7 days after the injury were used as controls.
(§2) Macrophage migration was evaluated by immunostaining with the macrophage-specific monoclonal antibody CD11b (MAC1) in acetone/ethanol fixed sections. To quantitate the extent of macrophage invasion, the area occupied by MAC1-positive cells as a percentage of the total area of the neointima was determined. The number of SMCs in the injured artery was counted at day 4, 7 and 14 by the modified method of Prescott et al. Briefly, the cross-sections were subjected to immunohistostaining against α-smooth muscle actin using a commercially available detection system (DAKO) and counter-stained with hematoxylin. The number of nuclei that were accompanied by α-smooth muscle actin-positive cytoplasm was counted at a magnification of ×40 in 10 independent sections from each rat by an observer in a blind manner.

For data set [2] the test system is unchanged. As to the kind of experiment: S100A13, IL1, p40, PS expression in balloon-injured vessel wall (immunohistochemistry). In kind it is in vivo, Sprague-Dawley rats. How it is done: as §1
To evaluate S100A13, FGF1, p40 and IL-1α expression in balloon-injured arteries, paraffin-embedded specimens from the 4th, 7th and 14th day after the injury were cut into 5-μm cross sections, and mounted on glass slides. These sections were incubated in 10% hydrogen peroxide for 90 minutes to block endogenous peroxidase activity. Nonspecific binding was prevented by preincubating the sections with 5% bovine serum albumin (BSA; Sigma) in PBS. The sections were sequentially incubated with polyclonal rabbit anti-S100A13 antibody at a concentration of 1:200; polyclonal rabbit anti-FGF1 antibody at a concentration of 1:500; monoclonal mouse anti-p40 antibody at a concentration of 1:100; polyclonal rabbit anti-IL-1a antibody at a concentration of 1:50; phosphatidylserine (PS) antibody. After they were washed with PBS, the sections were incubated with anti-rabbit and anti-mouse IgG-conjugated horseradish peroxidase (Biorad) for an additional 30 minutes at room temperature. Each incubation was followed by a wash in PBS. Staining was visualized using the chromogen 0.06% 3,3′-diaminobenzidine/5% hydrogen peroxide in 0.05 mol/L Tris-HCl (pH 7.6). Control sections were incubated with nonimmune rabbit IgG at a concentration of 1:200.

For data set [3] the test system is unchanged. As to the kind of experiment: Neointima formation after balloon injury of rat carotid artery (histomorphometry, I/M ratio). In kind it is in vivo, Sprague-Dawley rats. The source says:
Seventy-nine Sprague-Dawley male rats (Charles River Laboratories) weighing 350 to 450 grams, at 12-16 weeks of age, were included in the study. All rats in this study were handled according to the animal welfare regulation of the Maine Medical Center Research Institute, and the study protocol has been approved by the Animal Care and Use Committee of that institution. The rats received humane care in accordance with the animal use principles of the American Society of Physiology. All rats were maintained under identical conditions of temperature (21±1° C.), humidity (60±5%), and light/dark cycle, and had free access to normal rat chow.
To assess the effect of time course of copper chelation in relation to the injury on the neointima formation, 5 additional groups of rats were studied. All of them were treated with TTM for 2 weeks before the injury, and then TTM was withheld as follows: at the day of the injury (n=6) as well as 4 days (n-5), 6 days (n=7), 8 days (n=6), and 10 days (n=6) after the balloon denudation.
Rats were anesthetized with an intraperitoneal injection of ketamine (50 mg/kg) and xylazine (2.2 mg/kg). Angioplasty of the carotid artery was performed with a balloon embolectomy catheter as previously described. Briefly, the balloon catheter (2F Fogarty, Edwards Laboratories) was introduced through the left external carotid artery into the aorta, and the balloon was inflated. The vessel was damaged by passing an inflated balloon through the lumen three times. The catheter was rotated when pulling back. At the time of the final experiment, the animals were euthanized after anesthesia. A midline abdominal incision exposing the distal abdominal aorta was made. After retrograde cannulation of the abdominal aorta at its bifurcation with a 18-gauge intravenous catheter, the arterial tree was cleared of blood by perfusion with 100 ml of PBS (pH 7.2), followed by in vivo fixation with either 4% formaldehyde in phosphate-buffered saline (pH 7.2) or acetone/ethanol solution in 1:1 ratio. The entire left and right carotid arteries were harvested, including the aortic arch, innominate artery and left carotid bifurcation, and further immersed in the respective fixative. The injured left common carotid arteries were cut in three sections at least 4 mm long from the proximal, middle and distal part. From each study group, a part from the untreated contra-lateral right common carotid artery (control) was taken as well. The specimens were then dehydrated through a graded ethanol series, and embedded in paraffin for sectioning. Other arteries were not perfusion-fixed but were removed and immediately frozen. Three different segments of the left carotid artery were used for histological, morphometric, and immunohistochemical studies.
Morphometric analysis of the arterial segment was carried out in a blind manner on cross-sections stained with hematoxylin-eosin. For each animal at least 3 sections originating from the proximal, middle and distal segment of the injured vessel were quantitatively measured. Using a computerized digital microscopic planimetry algorithm (Optimas, Version 5.22), the areas within the external elastic lamina (EEL area), the internal elastic lamina (IEL area), and the luminal area were measured. Other areas were calculated as follows: medial area=EEL area−IEL area; neointimal area=IEL area−luminal area; neointima-to-media (I/M ratio=neointimal area/medial area.

Data set [4] shares this test system. As to the kind of experiment: Cell proliferation in injured arterial wall (α-smooth muscle actin and PCNA immunostaining). In kind it is in vivo, Sprague-Dawley rats. How it is done:
as §1
Proliferating cell nuclear antigen (PCNA) analysis was used to quantify the proliferative activity of cells at the balloon injury sites, and it was performed according to Siitonen et al. Briefly, PCNA-positive cells were counted in the vessel cross sections using a standard light microscope equipped with an ocular reticule (magnification ×10) and a ×40 objective. At least 500 nuclei were counted from each slide. The sections were photographed under low power, the images were video-digitized, and stored in the image analysis system (Qwin Lite 2.2, Leica). Staining results were expressed as percentage of PCNA-immunoreactive cell nuclei. Faint diffuse nuclear staining seen in some tissue sections was not included in the PCNA score.
as §2

For data set [5] the following is noted: rat, in vivo, 10 mg/kg.
Experimental: A copper chelator, ammonium tetrathiomolybdate (Sigma Aldrich), was administered daily in a dose of 10 mg/kg. The total daily amount was freshly dissolved into 45 ml water and was dispensed to the rats in the drinking water. To assess the effect of copper chelation on neointimal formation after common carotid artery denudation, TTM was given as follows: TTM administration started 2 weeks before the injury in 6 rats; 1 week before the injury in 6 rats; there was no pre-injury treatment with TTM in 5 rats. All those rats were treated with TTM for 2 weeks after the balloon injury. Five rats, which underwent the surgical procedure and were never treated with TTM, served as controls.

Regarding `[NH4+].[NH4+].[SH-].[SH-].[S]=[Mo]=[S]` [TTM, ammonium tetrathiomolybdate], in data set [1] (4 and 7 days after the injury), the “MAC1 positive cells in controls compared to treated rats” value is given as “marked increase”. Also, in data set [1] (4 days after injury), the “macrophages in the neointima vs control group” value was “not detectably different”. The “macrophages within the arterial wall” value in data set [1] (any time point after the injury (4 and 7 days)) is given as “very few macrophages were present”. Also, the macrophages vs controls result in data set [1] (day 7 after injury) is “more pronounced in the controls”. For the same molecule, the “S100A13, IL1 and PS staining in the neointima” value in data set [2] (4 and 7 days after injury) is given as “no positive staining was detected”; in data set [2] (14 days after the injury), “only a few cells were positively stained”. The IL1 positive staining entry in data set [2] (7 and 14 days after the balloon injury) is “almost complete inhibition”. Moreover, the “presence of S100A13 compared to the controls” value in data set [2] (7 and 14 days after the injury) is recorded as “significantly decreased”. Also, the phosphatidylserine flipping entry in data set [2] (balloon-injured arteries, controls did show it) was “did not show phosphatidylserine flipping”. Also, the “neointima development, hematoxylin-eosin, vs controls” value in data set [3] (4 days after the injury) is recorded as “no difference”; in data set [3] (day 7 after the injury), “more pronounced in the controls”. Also, the intima/media ratio came out at 0.96±0.121 in data set [3] (14 days after balloon injury, TTM 10 mg/kg daily started 1 week before injury, 2 weeks after, n=6, controls 1.76±0.105); 0.83±0.006 in data set [3] (14 days after balloon injury, TTM 10 mg/kg daily started 2 weeks before injury, 2 weeks after, n=6, controls 1.76±0.105); 1.27±0.04 in data set [3] (14 days after balloon injury, TTM 10 mg/kg daily started on the day of injury, 2 weeks after, n=5, controls 1.76±0.105); 0.76±0.06 in data set [3] (TTM started 2 weeks before injury, continued 6 days after); 0.83±0.1 in data set [3] (TTM started 2 weeks before injury, continued 8 days after); 0.79±0.013 in data set [3] (TTM started 2 weeks before injury, continued 10 days after). Further, the intima/media ratio in data set [3] (TTM started 2 weeks before injury, stopped at the day of the injury) was found to be 1.29±0.19. Also, the “reduction in the neointima formation in the rat carotid artery” value in data set [3] (TTM administration before and after injury, vs controls) is on record as “up to 53%”. The “I/M ratio compared to the controls” value in data set [3] (each TTM regimen, 14 days after balloon injury (FIG. 6E)) was “significant decrease”. Besides, the “SMA-positive cells in the neointima vs TTM-free rats” value in data set [4] (7 and 14 days after the injury) was “significantly less abundant”; in data set [4] (day 4 after the balloon injury) it was “No significant difference”. Also, the “PCNA-positive cells in the neointimal area” value in data set [4] (14 days after balloon angioplasty, 10 mg/kg, 2 weeks before/2 weeks after injury, n=5, P<0.05) is “significant reduction”. Further, the “effects upon visual inspection of the animals” value in data set [5] is listed as “without detectable effects”.
